Patent US20060063759A1, “Tricyclic steroid hormone nuclear receptor modulators” (priority 2002, published 2006)

Tests used:
glucocorticoid receptor = target: T1, glucocorticoid receptor (Homo sapiens, UniProt P04150); test: Glucocorticoid Receptor Binding Assay ([3H]-dexamethasone, A549 cell extract); conditions: [3H]-dexamethasone binding, read-out: GR Ki
T1 construct: containing 50-200 ug of A549 cell extract and 1.86 nM [^3H]-dexamethasone; host or cells: A549 human lung epithelial cells (sonicated cell extract)
T1 sequence (P04150 1-777): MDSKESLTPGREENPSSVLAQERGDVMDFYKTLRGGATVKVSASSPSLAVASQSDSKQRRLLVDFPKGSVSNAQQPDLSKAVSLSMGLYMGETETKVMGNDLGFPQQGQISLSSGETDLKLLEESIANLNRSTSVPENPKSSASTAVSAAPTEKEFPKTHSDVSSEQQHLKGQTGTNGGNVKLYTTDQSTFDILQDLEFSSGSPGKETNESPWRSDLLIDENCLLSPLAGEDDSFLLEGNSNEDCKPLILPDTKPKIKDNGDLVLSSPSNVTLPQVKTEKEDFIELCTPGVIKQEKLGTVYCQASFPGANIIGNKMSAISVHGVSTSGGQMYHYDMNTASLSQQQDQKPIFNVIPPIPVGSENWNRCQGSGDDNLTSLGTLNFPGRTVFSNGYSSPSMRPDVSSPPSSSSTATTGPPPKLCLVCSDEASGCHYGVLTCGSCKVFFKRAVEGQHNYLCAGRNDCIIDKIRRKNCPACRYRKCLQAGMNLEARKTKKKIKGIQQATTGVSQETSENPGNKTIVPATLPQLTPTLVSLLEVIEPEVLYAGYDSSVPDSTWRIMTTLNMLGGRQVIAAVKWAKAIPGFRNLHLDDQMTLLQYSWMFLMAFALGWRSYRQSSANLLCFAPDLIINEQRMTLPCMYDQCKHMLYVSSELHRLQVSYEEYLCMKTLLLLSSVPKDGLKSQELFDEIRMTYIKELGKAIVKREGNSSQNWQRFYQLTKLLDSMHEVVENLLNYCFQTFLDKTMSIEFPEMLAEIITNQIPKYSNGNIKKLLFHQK
Method in brief: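 A549 cell extract (50–200 ug) incubated with 1.86 nM [3H]-dexamethasone and test compound for 16 h at 4 °C in Tris-HCl pH 7.2 buffer with glycerol and molybdate. Unbound radioligand removed by dextran-coated charcoal, then supernatant bound counts measured by scintillation.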

human MR = target: T2, human MR (Homo sapiens, UniProt P08235); test: Mineralocorticoid Receptor Binding Assay ([3H]-aldosterone); conditions: [3H]-aldosterone binding, human MR expressed in Sf9 cells; read-out: MR Ki
T2 construct: The full length human MR gene is cloned from a human kidney or human brain cDNA library; His tag from the pAcHLT vector (own knowledge); made in house; host or cells: Sf9 insect cells (baculovirus, pAcHLT transfer vector)
T2 sequence (P08235 1-984): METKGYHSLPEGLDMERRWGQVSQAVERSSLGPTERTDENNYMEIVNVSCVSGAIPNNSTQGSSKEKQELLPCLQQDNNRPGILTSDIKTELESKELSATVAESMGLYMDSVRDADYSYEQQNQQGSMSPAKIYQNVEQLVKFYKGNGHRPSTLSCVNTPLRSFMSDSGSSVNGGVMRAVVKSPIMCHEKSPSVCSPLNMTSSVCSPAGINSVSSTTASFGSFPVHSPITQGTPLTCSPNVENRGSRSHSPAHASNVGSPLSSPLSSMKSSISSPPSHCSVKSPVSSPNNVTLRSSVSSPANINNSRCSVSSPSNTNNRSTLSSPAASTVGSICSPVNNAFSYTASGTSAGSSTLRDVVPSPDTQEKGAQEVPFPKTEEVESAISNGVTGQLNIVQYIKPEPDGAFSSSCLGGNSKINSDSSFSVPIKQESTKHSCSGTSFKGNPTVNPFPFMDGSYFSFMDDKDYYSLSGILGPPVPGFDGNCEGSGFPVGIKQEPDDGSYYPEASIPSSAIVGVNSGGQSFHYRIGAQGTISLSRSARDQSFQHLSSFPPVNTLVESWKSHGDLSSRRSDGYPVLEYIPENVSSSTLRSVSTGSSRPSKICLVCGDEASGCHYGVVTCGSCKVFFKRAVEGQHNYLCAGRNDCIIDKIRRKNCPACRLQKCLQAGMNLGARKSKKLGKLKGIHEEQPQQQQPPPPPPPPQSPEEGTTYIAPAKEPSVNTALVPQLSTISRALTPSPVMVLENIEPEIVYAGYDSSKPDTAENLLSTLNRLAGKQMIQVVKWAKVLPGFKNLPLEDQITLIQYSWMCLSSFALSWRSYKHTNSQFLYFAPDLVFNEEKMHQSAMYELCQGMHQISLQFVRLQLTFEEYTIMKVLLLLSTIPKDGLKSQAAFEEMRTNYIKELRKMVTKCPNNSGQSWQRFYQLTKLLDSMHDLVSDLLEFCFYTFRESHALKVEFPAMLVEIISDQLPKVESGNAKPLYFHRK
Method in brief: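 Lysate supernatant of Sf9 cells expressing full-length human MR (20-25 μg protein) was incubated with 0.5 nM [3H]-aldosterone and test compound in molybdate/Tris/phosphate/glycerol buffer, pH 7.5, ~16 h at 4 °C. Bound ligand was filtered and counted by scintillation; IC50 is the concentration halving [3H]-aldosterone binding.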

Row | Ki (glucocorticoid receptor) [nM] | Ki (human MR) [nM] | Structure (SMILES)
1 | < 500 | < 500 | Oc1cccc(C=C2c3ccccc3CCc3c(F)cccc32)c1 [185(a), 3-(1-Fluoro-10,11-dihydro-dibenzo[a,d]cyclohepten-5-ylidenemethyl)-phenol]
2 | < 500 | < 500 | Cc1cccc2c1CCc1ccccc1/C2=C\c1ccc(NS(C)(=O)=O)cc1 [Example 316]
3 | < 1000 | < 500 | O=c1[nH]c2cc(C=C3c4ccc(F)cc4CCc4cc(F)ccc43)ccc2n1CCN1CCOCC1 [Example 436, 5-(2,8-difluoro-10,11-dihydro-dibenzo[a,d]cyclohepten-5-ylidenemethyl)-1-(2-morpholin-4-yl-ethyl)-1,3-dihydro-benzoimidazol-2-one]
4 | < 1000 | < 500 | Cc1cccc(CC2c3ccccc3CCc3ccccc32)c1 [Example 133, 5-(3-Methyl-benzyl)-10,11-dihydro-5H-dibenzo[a,d]cycloheptene]
5 | < 1000 | < 500 | Nc1cccc(/C=C2\c3ccc(F)cc3CCc3ncccc32)c1 [Example 532]
6 | < 10000 | < 500 | Cc1ccc(CC2c3ccccc3CCc3ccccc32)cc1NS(C)(=O)=O [Example 286]
7 | < 500 | < 500 | O=c1[nH]c2ccc(/C=C3\c4ccc(F)cc4COc4cc(F)ccc43)cc2[nH]1 [Example 613, 5-(3,8-Difluoro-6H-dibenzo[b,e]oxepin-11-ylidenemethyl)-1,3-dihydro-benzoimidazol-2-one]
8 | < 10000 | < 1000 | Nc1cccc(C=C2c3ccccc3CCc3ccccc32)n1 [Example 230, 6-(10,11-Dihydro-dibenzo[a,d]cyclohepten-5-ylidenemethyl)-pyridin-2-ylamine]
9 | < 10000 | < 500 | O=c1[nH]c2cc(/C=C3\c4ccc(F)cc4CCc4ncccc43)ccc2n1CCN1CCOCC1 [Example 596]
10 | < 1000 | < 500 | Oc1cccc(C=C2c3ccccc3C3C(c4ccccc42)C3(F)F)c1 (centres unmarked) [Example 256]
11 | < 10000 | < 500 | O=c1[nH]c2ccc(/C=C3\c4ccccc4CCc4cc(F)ccc43)cc2[nH]1 [Example 448]
12 | < 500 | < 500 | Cc1ccc2c(c1)CSc1ccccc1/C2=C/c1cccc(NS(C)(=O)=O)c1 [Example 744]
13 | < 500 | < 500 | CS(=O)(=O)Nc1cccc(C=C2c3ccccc3CCc3cc(O)c(O)cc32)c1 (mixture of isomers) [Example 171, N-[3-(2,3-Dihydroxy-10,11-dihydro-dibenzo[a,d]cyclohepten-5-ylidenemethyl)-phenyl]-methanesulfonamide]
14 | < 500 | < 500 | Nc1ccccc1CC1c2ccccc2CCc2ccccc21 [Example 287]
15 | < 500 | < 500 | Oc1cccc(/C=C2\c3ccccc3CCc3c(O)cccc32)c1 [Example 376]
16 | < 10000 | < 1000 | Nc1ccc(/C=C2/c3ccc(F)cc3CCc3ncccc32)cc1 [Example 535]
17 | < 500 | < 500 | CSc1ccc2c(c1)C(=Cc1cccc(NS(C)(=O)=O)c1)c1ccccc1CC2 [Example 320]
18 | < 500 | < 500 | CS(=O)(=O)Nc1cccc(/C=C2/c3ccc(Cl)cc3CCc3ncsc32)c1 [Example 552]
19 | < 500 | < 500 | CS(=O)(=O)Nc1cccc(C=C2c3ccccc3CCc3ccccc32)n1 [Example 231, N-[6-(10,11-Dihydro-dibenzo[a,d]cyclohepten-5-ylidenemethyl)-pyridin-2-yl]-methanesulfonamide]

Row | Ki (glucocorticoid receptor) [nM] | Ki (human MR) [nM] | Structure (SMILES)
20 | < 500 | < 500 | CS(=O)(=O)Nc1cccc(C=C2c3ccccc3CCc3cc(N)ccc32)c1 [Example 401]
21 | < 10000 | < 1000 | CS(=O)(=O)Nc1cccc(/C=C2\c3ccccc3CS(=O)(=O)c3ccccc32)c1 [Example 264, N-[3-(10,10-Dioxo-10,11-dihydro-10λ^6-thia-dibenzo[a,d]cyclohepten-5-ylidenemethyl)-phenyl]-Methanesulfonamide]
22 | < 1000 | < 500 | CS(=O)(=O)Nc1cccc(/C=C2/c3ccccc3COc3ccc(Cl)cc32)c1 [Example 680]
23 | < 500 | < 500 | Oc1cncc(C=C2c3ccccc3CCc3ccccc32)c1 [Example 236, 5-(10,11-Dihydro-dibenzo[a,d]cyclohepten-5-ylidenemethyl)pyridin-3-ol]
24 | < 1000 | < 500 | Nc1cccc(C=C2c3ccccc3CCc3cc(Cl)ccc32)c1 (mixture of isomers) [Example 289, 3-(2-Chloro-10,11-dihydro-dibenzo[a,d]cyclohepten-5-ylidenemethyl)-phenylamine]
25 | < 500 | < 500 | CC(=O)Nc1ccc2c(c1)CCc1ccccc1C2=Cc1cccc(NS(C)(=O)=O)c1 [Example 405]
26 | < 500 | < 500 | CS(=O)(=O)Nc1cc(C=C2c3ccccc3CCc3ccccc32)ccc1F [Example 49, N-[5-(10,11-Dihydro-dibenzo[a,d]cyclohepten-5-ylidenemethyl)-2-fluoro-phenyl]-methanesulfonamide]
27 | < 500 | < 500 | O=C(Nc1cccc(/C=C2\c3ccccc3CCc3cc(Cl)ccc32)c1)C(F)(F)F [Example 413]
28 | < 1000 | < 500 | CC(C)n1c(=O)[nH]c2cc(/C=C3/c4ccccc4COc4cc(F)ccc43)ccc21 [Example 638]
29 | < 1000 | < 500 | CS(=O)(=O)Nc1cccc(C=C2c3ccccc3CCc3cc(-c4ccccc4)ccc32)c1 [Example 412]
30 | < 10000 | < 500 | Oc1cccc(/C=C2/c3ccccc3CCc3cccc(Cl)c32)c1 [Example 367]
31 | < 500 | < 500 | N#Cc1ccc2c(c1)CCc1ccccc1/C2=C\c1cccc(O)c1 [Example 341]
32 | < 500 | < 500 | C/C(=C1/c2ccccc2COc2ccccc21)c1cccc(NS(C)(=O)=O)c1 [Example 796]
33 | < 500 | < 500 | O=c1[nH]c2cc(C=C3c4ccccc4CCc4cc(Cl)ccc43)ccc2o1 [Example 222(a), 5-(2-Chloro-10,11-dihydro-dibenzo[a,d]cyclohepten-5-ylidenemethyl)-3H-benzooxazol-2-one]
34 | < 10000 | < 500 | CS(=O)(=O)Nc1cccc(/C=C2\c3ccccc3CCc3sccc32)c1 [Example 475]
35 | < 10000 | < 500 | O=c1[nH]c2cc(/C=C3\c4ccccc4CCc4cc(F)ccc43)ccc2o1 [Example 451]
36 | < 500 | < 500 | C/C(=C1\c2ccccc2CCc2c(F)cccc21)c1cccc(NS(C)(=O)=O)c1 [Example 787]
37 | < 10000 | < 500 | CS(=O)(=O)Nc1cc(F)cc(/C=C2\c3ccc(Cl)cc3CCc3cccnc32)c1 [Example 548]
